Assay results taken from patent US20020035061A1, “COMPOSITIONS AND METHODS FOR TREATING INFECTIONS USING CATIONIC PEPTIDES ALONE OR IN COMBINATION WITH ANTIBIOTICS” (priority 1996, published 2002).
Where two headings read alike, the source gives them in different places.

How the values were obtained:
[1] = tested on: mammalian red blood cells; settings: 37° C., 1 hour
Experimental: Candidate cationic peptides may be further tested for their toxicity to normal mammalian cells. An exemplary assay is a red blood cell (RBC) (erythrocyte) hemolysis assay. Briefly, in this assay, red blood cells are isolated from whole blood, typically by centrifugation, and washed free of plasma components. A 5% (v/v) suspension of erythrocytes in isotonic saline is incubated with different concentrations of peptide analogue. […] After incubation for approximately 1 hour at 37° C., the cells are centrifuged, and the absorbance of the supernatant at 540 nm is determined. A relative measure of lysis is determined by comparison to absorbance after complete lysis of erythrocytes using NH4Cl or equivalent (establishing a 100% value). A peptide with <10% lysis at 100 μg/ml is suitable. Preferably, there is <5% lysis at 100 μg/ml. Such peptides that are not lytic, or are only moderately lytic, are desirable and suitable for further screening.
Cationic peptides are tested for toxicity towards eukaryotic cells by measuring the extent of lysis of mammalian red blood cells (RBC). Briefly, in this assay, red blood cells are separated from whole blood by centrifugation and washed free of plasma components. A 5% (v/v) washed red blood cell suspension is prepared in isotonic saline. An aliquot of peptide in formulation is then added and mixed in. After incubation at 37° C. for 1 hour with constant agitation, the solution is centrifuged and the supernatant measured for absorbance at 540 nm to detect released hemoglobin.
A combination of cationic peptide and antibiotic agent is tested for toxicity towards eukaryotic cells by measuring the extent of lysis of mammalian red blood cells. Briefly, red blood cells are separated from whole blood by centrifugation, washed free of plasma components, and resuspended to a 5% (v/v) suspension in isotonic saline. […] Following incubation with constant agitation at 37° C. for 1 hour, the solution is centrifuged, and the absorbance of the supernatant is measured at 540 nm, which detects released hemoglobin. […]

[2] = tested on: A. calcoaceticus; type: cell-based
[3] = tested on: S. maltophilia; type: cell-based
[4] = tested on: S. pneumoniae; assay: Agarose dilution assay (MIC); type: cell-based; settings: for Peptide MIC values: agarose dilution
[5] = tested on: E. faecium; type: cell-based
[6] = tested on: H. influenzae; assay: Agarose dilution assay (MIC); type: cell-based; settings: H. influenzae strain HIN002
[7] = tested on: E. cloacae; type: cell-based
[8] = tested on: K. pneumoniae; type: cell-based
[9] = tested on: P. aeruginosa; type: cell-based; settings: for Peptide MIC values: agarose dilution
[10] = tested on: S. aureus; type: cell-based; settings: for Peptide MIC values: agarose dilution
[11] = tested on: S. epidermidis; type: cell-based
[12] = tested on: S. pyogenes; assay: Agarose dilution assay (MIC); type: cell-based; settings: S. pyogenes strain SPY005
[13] = tested on: E. faecalis; type: cell-based; settings: E. faecalis strain EFS002
[14] = tested on: E. coli; type: cell-based; settings: for Peptide MIC values: agarose dilution
[15] = tested on: P. mirabilis; assay: Agarose dilution assay (MIC); type: cell-based; settings: P. mirabilis strain PM002
[16] = tested on: bacterial isolates; assay: microbe, parasite or virus in culture; type: cell-based
[17] = tested on: microorganisms with acquired resistance; assay: microbe, parasite or virus in culture; type: cell-based
[18] = tested on: S. marcescens; type: cell-based
[19] = tested on: MSSA (Smith, ATCC # 19640); assay: In vivo efficacy, MSSA infection; set-up: species or system S. aureus; settings: mice, ip, formulation D, below 14.5 mg/kg
[20] = tested on: E. coli strain ML-35 inner membrane; type: cell-based; settings: cells pre-incubated with valinomycin
[21] = A. baumannii ABI001, Tobramycin section
[22] = A. calcoaceticus 3, Piperacillin section
[23] = P. aeruginosa 15, Piperacillin section
[24] = P. aeruginosa PA008, Tobramycin section
[25] = P. aeruginosa PA025, Tobramycin section
[26] = S. marcescens SB1, Piperacillin section
[27] = peptide + Piperacillin, A. calcoaceticus 3
[28] = peptide + Piperacillin, P. aeruginosa 15
[29] = peptide + Piperacillin, S. marcescens SB1
[30] = peptide + Tobramycin, A. baumannii ABI001
[31] = peptide + Tobramycin, P. aeruginosa PA008
[32] = peptide + Tobramycin, P. aeruginosa PA025

## CC[C@H](C)[C@H](NC(=O)CNC(=O)[C@@H](NC(=O)[C@H](CCCCN)NC(=O)[C@H](CCCCN)NC(=O)[C@H](Cc1ccccc1)NC(=O)[C@H](CC(C)C)NC(=O)[C@H](CCCCN)NC(=O)[C@H](Cc1c[nH]c2ccccc12)NC(=O)[C@@H](N)CCCCN)[C@@H](C)CC)C(=O)NCC(=O)N[C@@H](C)C(=O)N[C@H](C(=O)N[C@@H](CC(C)C)C(=O)N[C@@H](CCCCN)C(=O)N[C@H](C(=O)N[C@@H](CC(C)C)C(=O)N[C@H](C(=O)N[C@H](C(=O)NCC(=O)N[C@@H](CC(C)C)C(=O)N1CCC[C@H]1C(=O)N[C@@H](C)C(=O)N[C@@H](CC(C)C)C(=O)N[C@H](C(=O)N[C@@H](CO)C(=O)O)[C@@H](C)CC)[C@@H](C)O)[C@@H](C)O)C(C)C)C(C)C [MBI 27]
[1]
  % Lysis: 2.7%

## ILRRVJPWWPWRRR [MBI 11B9CN]
[2]; A. calcoaceticus strain AC002
  MIC: 4 µg/mL
[3]; S. maltophilia strain SMA002
  MIC: 32 µg/mL
[4]; S. pneumoniae strain SBSPN2
  MIC: >128 µg/mL
[4]; S. pneumoniae strain SPN044
  MIC: >128 µg/mL
[5]; E. faecium strain EFM002
  MIC: 4 µg/mL
[6]
  MIC: >128 µg/mL
[7]; E. cloacae strain ECL007
  MIC: >128 µg/mL
[8]; K. pneumoniae strain KP001
  MIC: 32 µg/mL
[9]; P. aeruginosa strain PA004
  MIC: 128 µg/mL
[10]; S. aureus strain SA010
  MIC: 4 µg/mL
[11]; S. epidermidis strain SE010
  MIC: 2 µg/mL
[12]
  MIC: 16 µg/mL
[13]
  MIC: 8 µg/mL
[14]; E. coli strain ECO005
  MIC: 8 µg/mL
[15]
  MIC: >128 µg/mL
[16]; A. baumannii ABI001
  Peptide MIC + Tobramycin: 8 µg/mL
  Tobramycin MIC + Peptide: 4 µg/mL
[16]; [21]
  Peptide MIC Alone: 32 µg/mL
[16]; A. calcoaceticus 3
  Peptide MIC + Piperacillin: 2 µg/mL
  Piperacillin MIC + Peptide: 32 µg/mL
[16]; [22]
  Peptide MIC Alone: 32 µg/mL
[16]; B. cepacia BC002
  Peptide MIC + Tobramycin: 32 µg/mL
  Tobramycin MIC + Peptide: 64 µg/mL
[16]; B. cepacia BC002, Tobramycin section
  Peptide MIC Alone: >128 µg/mL
[16]; H. influenzae 3
  Peptide MIC + Piperacillin: 0.125 µg/mL
  Piperacillin MIC + Peptide: 0.25 µg/mL
[16]; H. influenzae 3, Piperacillin section
  Peptide MIC Alone: >128 µg/mL
[16]; H. influenzae SB1
  Peptide MIC + Piperacillin: 0.125 µg/mL
  Piperacillin MIC + Peptide: 0.25 µg/mL
[16]; H. influenzae SB1, Piperacillin section
  Peptide MIC Alone: >128 µg/mL
[16]; P. aeruginosa 15
  Peptide MIC + Piperacillin: 64 µg/mL
  Piperacillin MIC + Peptide: 64 µg/mL
[16]; [23]
  Peptide MIC Alone: >128 µg/mL
[16]; P. aeruginosa 23
  Peptide MIC + Piperacillin: 0.5 µg/mL
  Piperacillin MIC + Peptide: 16 µg/mL
[16]; P. aeruginosa 23, Piperacillin section
  Peptide MIC Alone: 64 µg/mL
[16]; P. aeruginosa PA008
  Peptide MIC + Tobramycin: 64 µg/mL
  Tobramycin MIC + Peptide: 0.125 µg/mL
[16]; [24]
  Peptide MIC Alone: 128 µg/mL
[16]; P. aeruginosa PA025
  Peptide MIC + Tobramycin: 64 µg/mL
  Tobramycin MIC + Peptide: 2 µg/mL
[16]; [25]
  Peptide MIC Alone: 128 µg/mL
[16]; S. aureus 19 MRSA
  Peptide MIC + Piperacillin: 1 µg/mL
  Piperacillin MIC + Peptide: 16 µg/mL
[16]; S. aureus 19 MRSA, Piperacillin section
  Peptide MIC Alone: 4 µg/mL
[16]; S. aureus SB2MRSA
  Peptide MIC + Piperacillin: 1 µg/mL
  Piperacillin MIC + Peptide: 8 µg/mL
[16]; S. aureus SB2MRSA, Piperacillin section
  Peptide MIC Alone: 2 µg/mL
[16]; S. maltophilia 5
  Peptide MIC + Piperacillin: 64 µg/mL
  Piperacillin MIC + Peptide: 64 µg/mL
[16]; S. maltophilia 5, Piperacillin section
  Peptide MIC Alone: >128 µg/mL
[16]; S. maltophilia 13
  Peptide MIC + Piperacillin: 32 µg/mL
  Piperacillin MIC + Peptide: 64 µg/mL
[16]; S. maltophilia 13, Piperacillin section
  Peptide MIC Alone: >128 µg/mL
[16]; S. maltophilia SMA029
  Peptide MIC + Tobramycin: 16 µg/mL
  Tobramycin MIC + Peptide: 4 µg/mL
[16]; S. maltophilia SMA029, Tobramycin section
  Peptide MIC Alone: >128 µg/mL
[16]; S. marcescens SB1
  Peptide MIC + Piperacillin: 2 µg/mL
  Piperacillin MIC + Peptide: 16 µg/mL
[16]; [26]
  Peptide MIC Alone: >128 µg/mL
[16]; [27]
  FIC: 0.56
[16]; peptide + Piperacillin, H. influenzae 3
  FIC: 0.50
[16]; peptide + Piperacillin, H. influenzae SB1
  FIC: 0.50
[16]; [28]
  FIC: 0.50
[16]; peptide + Piperacillin, P. aeruginosa 23
  FIC: 0.13
[16]; peptide + Piperacillin, S. aureus 19 MRSA
  FIC: 0.38
[16]; peptide + Piperacillin, S. aureus SB2MRSA
  FIC: 0.56
[16]; peptide + Piperacillin, S. maltophilia 5
  FIC: 0.50
[16]; peptide + Piperacillin, S. maltophilia 13
  FIC: 0.38
[16]; [29]
  FIC: 0.26
[16]; [30]
  FIC: 0.50
[16]; peptide + Tobramycin, B. cepacia BC002
  FIC: 0.38
[16]; [31]
  FIC: 0.50
[16]; [32]
  FIC: 0.56
[16]; peptide + Tobramycin, S. maltophilia SMA029
  FIC: 0.13
[17]; A. baumannii ABI001
  Peptide MIC + Tobramycin: 8 µg/mL
  Tobramycin MIC + Peptide: 4 µg/mL
[17]; [21]
  Peptide MIC Alone: 32 µg/mL
[17]; A. calcoaceticus 3
  Peptide MIC + Piperacillin: 16 µg/mL
  Piperacillin MIC + Peptide: 16 µg/mL
[17]; [22]
  Peptide MIC Alone: 32 µg/mL
[17]; E. coli EC0006
  Peptide MIC + Tobramycin: 8 µg/mL
  Tobramycin MIC + Peptide: 4 µg/mL
[17]; E. coli EC0006, Tobramycin section
  Peptide MIC Alone: 32 µg/mL
[17]; P. aeruginosa 12
  Peptide MIC + Piperacillin: 64 µg/mL
  Piperacillin MIC + Peptide: 64 µg/mL
[17]; P. aeruginosa 12, Piperacillin section
  Peptide MIC Alone: 128 µg/mL
[17]; P. aeruginosa 15
  Peptide MIC + Piperacillin: 64 µg/mL
  Piperacillin MIC + Peptide: 64 µg/mL
[17]; [23]
  Peptide MIC Alone: >128 µg/mL
[17]; P. aeruginosa PA008
  Peptide MIC + Tobramycin: 64 µg/mL
  Tobramycin MIC + Peptide: 0.125 µg/mL
[17]; [24]
  Peptide MIC Alone: 128 µg/mL
[17]; P. aeruginosa PA025
  Peptide MIC + Tobramycin: 64 µg/mL
  Tobramycin MIC + Peptide: 2 µg/mL
[17]; [25]
  Peptide MIC Alone: 128 µg/mL
[17]; S. maltophilia 2
  Peptide MIC + Piperacillin: 16 µg/mL
  Piperacillin MIC + Peptide: 16 µg/mL
[17]; S. maltophilia 2, Piperacillin section
  Peptide MIC Alone: 32 µg/mL
[17]; S. maltophilia SMA027
  Peptide MIC + Tobramycin: 32 µg/mL
  Tobramycin MIC + Peptide: 4 µg/mL
[17]; S. maltophilia SMA027, Tobramycin section
  Peptide MIC Alone: >128 µg/mL
[17]; S. maltophilia SMA031
  Peptide MIC + Tobramycin: 32 µg/mL
  Tobramycin MIC + Peptide: 4 µg/mL
[17]; S. maltophilia SMA031, Tobramycin section
  Peptide MIC Alone: >128 µg/mL
[17]; S. marcescens SB1
  Peptide MIC + Piperacillin: 2 µg/mL
  Piperacillin MIC + Peptide: 16 µg/mL
[17]; [26]
  Peptide MIC Alone: >128 µg/mL
[17]; [27]
  FIC: 0.75
[17]; peptide + Piperacillin, P. aeruginosa 12
  FIC: 0.75
[17]; [28]
  FIC: 0.50
[17]; peptide + Piperacillin, S. maltophilia 2
  FIC: 0.75
[17]; [29]
  FIC: 0.26
[17]; [30]
  FIC: 0.50
[17]; peptide + Tobramycin, E. coli EC0006
  FIC: 0.75
[17]; [31]
  FIC: 0.50
[17]; [32]
  FIC: 0.56
[17]; peptide + Tobramycin, S. maltophilia SMA027
  FIC: 0.63
[17]; peptide + Tobramycin, S. maltophilia SMA031
  FIC: 0.19
[18]; S. marcescens strain SMS003
  MIC: >128 µg/mL

## ILPWKWPWWPWRR [MBI 10CN]
[2]; A. calcoaceticus AC001
  MIC: 64 µg/mL
[3]; S. maltophilia SMA002
  MIC: 64 µg/mL
[4]; S. pneumoniae 406LE8
  Peptide MIC values: >128 µg/mL
[4]; S. pneumoniae 60120
  Peptide MIC values: 64 µg/mL
[4]; S. pneumoniae ATCC 49619
  Peptide MIC values: 32 µg/mL
[5]; E. faecium EFM003
  MIC: 2 µg/mL
[5]; agarose dilution
  Peptide MIC values: 4 µg/mL
[7]; E. cloacae ECL007
  MIC: >128 µg/mL
[8]; K. pneumoniae KP002
  MIC: 64 µg/mL
[19]
  survival: clear dose-dependent survival
[9]; P. aeruginosa PA002
  MIC: >128 µg/mL
[9]; P. aeruginosa ATCC 27853
  Peptide MIC values: >128 µg/mL
[9]; P. aeruginosa NCTC 10662
  Peptide MIC values: >128 µg/mL
[10]; S. aureus SA003
  MIC: 2 µg/mL
[10]; S. aureus MRSA9
  Peptide MIC values: 1 µg/mL
[10]; S. aureus MRSA13
  Peptide MIC values: 4 µg/mL
[10]; S. aureus MRSA17
  Peptide MIC values: 2 µg/mL
[11]; S. epidermidis SE010
  MIC: 4 µg/mL
[20]
  ONPG hydrolysis diminished compared to no pre-incubation: approximately 50%
[14]; E. coli ECO001
  MIC: 32 µg/mL
[14]; E. coli SBECO2
  MIC: 16 µg/mL
[14]; E. coli ATCC 25922
  Peptide MIC values: 16 µg/mL
[14]; E. coli NCTC 10418
  Peptide MIC values: 8 µg/mL
[18]; S. marcescens SMS004
  MIC: >128 µg/mL
[18]; agarose dilution, S. marcescens SM82
  Peptide MIC values: >128 µg/mL
